The subject of assay [1] is phenyl-para-quinone induced writhing. The assay can be described thus: phenyl-para-quinone writhing assay in mice (analgesia). The assay is classed as in vivo. Particulars: 20 mg/kg s.c., expressed as % decrease in writhing. The text has this: Exptl. […] Presented in Table I is the analgesic effect of one of the compounds of the invention expressed as the % decrease in writhing at a given dose.

Assay [2] has as its system Scopolamine Induced Memory Deficit. Nature of the assay: Dark Avoidance Assay (reversal of scopolamine induced memory deficit). The assay is classed as in vivo. The conditions noted are these: mice, retest after 24 hours. The protocol: In this assay, mice are tested for their ability to remember an unpleasant stimulus for a period of 24 hours. A mouse is placed in a chamber that contains a dark compartment; a strong incandescent light drives it to the dark compartment, where an electric shock is administered through metal plates on the floor. The animal is removed from the testing apparatus and tested again, 24 hours later, for the ability to remember the electric shock. If scopolamine, an anticholinergic that is known to cause memory impairment, is administered before an animal's initial exposure to the test chambers, the animal re-enters the dark compartment shortly after being placed in the test chamber 24 hours later. The effect of scopolamine is blocked by an active test compound, resulting in a greater interval before re-entry into the dark compartment. The results for an active compound are expressed as the percent of a group of animals in which the effect of scopolamine is blocked, as manifested by an increased interval between being placed in the test chamber and re-entering the dark compartment. The activity in the assay of some of the compounds of the invention are given below in Table 2.

On to `O=C1CCCN1Nc1ccncc1` [1-(4-pyridinylamino)-2-pyrrolidinone, 1-(4-Pyridinylamino)-2-pyrrolidinone], for which the “% Inhibition of Writhing” value in assay [1] is given as -56%. With `CCCN(c1ccncc1)N1CCCC1=O.O=C(O)C(=O)O` [1-(Propyl-4-pyridinylamino)-2-pyrrolidinone oxalate], in assay [2] (.3 mg/kg s.c.), the “% of Animals With Scopolamine Induced Memory Deficit Reversal” value is recorded as 33%.

With `Nc1c2c(nc3ccccc13)CCCC2` [Tacrine, reference compound], in assay [2] (.63 (mg/kg of body wt) s.c.), the “% of Animals With Scopolamine Induced Memory Deficit Reversal” value was found to be 13%.

Source of the values: patent publication US4994472A, “1-(pyridinylamino)-2-pyrrolidinones as pain relievers” (Hoechst-Roussel Pharmaceuticals Incorporated, priority 1989, dated 1991).
